Data: ChEMBL document CHEMBL1201862, “PubChem BioAssay data set” (2004)
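Assay format: 96-well plates, 48-hour exposure. GI50: concentration for 50% inhibition of growth.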 Calls of active or inactive are those of the source. Cut-off read from the data, not from the text of the source: active = GI50 up to about 1.1 µM and inactive = higher.

Legend:
Assay in all cases: NCI-60 cell line screen, 48 h
NCI-H23 = system: NCI-H23
HT-29 = system: HT-29
SK-MEL-2 = system: SK-MEL-2
DLD-1 = system: DLD-1
COLO 205 = system: COLO 205
OVCAR-3 = system: OVCAR-3
HCT-15 = system: HCT-15
CCRF-CEM = system: CCRF-CEM
SF-295 = system: SF-295
OVCAR-8 = system: OVCAR-8
RPMI-8226 = system: RPMI-8226
ACHN = system: ACHN
SN12C = system: SN12C
TK-10 = system: TK-10
UACC-62 = system: UACC-62
786-0 = system: 786-0
NCI-H522 = system: NCI-H522
NCI-H226 = system: NCI-H226
SK-OV-3 = system: SK-OV-3
M14 = system: M14
CAKI-1 = system: CAKI-1
IGROV-1 = system: IGROV-1
KM-20L2 = system: KM-20L2
SF-539 = system: SF-539
KM12 = system: KM12
SNB-19 = system: SNB-19
HOP-92 = system: HOP-92
SK-MEL-5 = system: SK-MEL-5
SF-268 = system: SF-268
U-251 = system: U-251
DMS-114 = system: DMS-114
HOP-18 = system: HOP-18
DMS-273 = system: DMS-273
HOP-62 = system: HOP-62
K562 = system: K562
HL-60 = system: HL-60
RXF 393 = system: RXF 393
LXFL 529 = system: LXFL 529
EKVX = system: EKVX
MOLT-4 = system: MOLT-4
SR = system: SR
LOX IMVI = system: LOX IMVI
NCI-H460 = system: NCI-H460
A498 = system: A498
UO-31 = system: UO-31
A549 = system: A549
OVCAR-4 = system: OVCAR-4
HCC 2998 = system: HCC 2998
SK-MEL-28 = system: SK-MEL-28
SW-620 = system: SW-620
M19-MEL = system: M19-MEL
UACC-257 = system: UACC-257
XF498 = system: XF498
SNB-75 = system: SNB-75
HCT-116 = system: HCT-116
OVCAR-5 = system: OVCAR-5
Malme-3M = system: Malme-3M

COC(=O)[C@H](Cc1ccccc1)NC(=O)/C(=C/C(C)C)NC(=O)[C@H](CCSC)NC=O
GI50 (NCI-H23): > 100 µM (inactive)
GI50 (HT-29): > 100 µM (inactive)
GI50 (SK-MEL-2): > 100 µM (inactive)
GI50 (DLD-1): > 100 µM (inactive)
GI50 (COLO 205): > 100 µM (inactive)
GI50 (OVCAR-3): > 100 µM (inactive)
GI50 (HCT-15): > 100 µM
GI50 (CCRF-CEM): > 100 µM (inactive)
GI50 (SF-295): > 100 µM (inactive)
GI50 (OVCAR-8): > 100 µM (inactive)
GI50 (RPMI-8226): > 100 µM (inactive)
GI50 (ACHN): > 100 µM (inactive)
GI50 (SN12C): > 100 µM (inactive)
GI50 (TK-10): > 100 µM (inactive)
GI50 (UACC-62): > 100 µM (inactive)
GI50 (786-0): > 100 µM (inactive)
GI50 (NCI-H522): > 100 µM (inactive)
GI50 (NCI-H226): > 100 µM (inactive)
GI50 (SK-OV-3): > 100 µM (inactive)
GI50 (M14): > 100 µM (inactive)
GI50 (CAKI-1): > 100 µM (inactive)
GI50 (IGROV-1): > 100 µM (inactive)
GI50 (KM-20L2): > 100 µM (inactive)
GI50 (SF-539): > 100 µM (inactive)
GI50 (KM12): > 100 µM (inactive)
GI50 (SNB-19): > 100 µM (inactive)
GI50 (HOP-92): > 100 µM (inactive)
GI50 (SK-MEL-5): > 100 µM (inactive)
GI50 (SF-268): > 100 µM (inactive)
GI50 (U-251): > 100 µM (inactive)
GI50 (DMS-114): > 100 µM (inactive)
GI50 (HOP-18): > 100 µM (inactive)
GI50 (DMS-273): > 100 µM (inactive)
GI50 (HOP-62): > 100 µM (inactive)
GI50 (K562): > 100 µM (inactive)
GI50 (HL-60): > 100 µM (inactive)
GI50 (RXF 393): > 100 µM (inactive)
GI50 (LXFL 529): > 100 µM (inactive)
GI50 (EKVX): > 100 µM (inactive)
GI50 (MOLT-4): > 100 µM (inactive)
GI50 (SR): > 100 µM (inactive)
GI50 (LOX IMVI): > 100 µM (inactive)
GI50 (NCI-H460): > 100 µM (inactive)
GI50 (A498): > 100 µM (inactive)
GI50 (UO-31): > 100 µM (inactive)
GI50 (A549): > 100 µM (inactive)
GI50 (OVCAR-4): > 100 µM (inactive)
GI50 (HCC 2998): > 100 µM (inactive)
GI50 (SK-MEL-28): > 100 µM (inactive)
GI50 (SW-620): > 100 µM (inactive)
GI50 (M19-MEL): > 100 µM (inactive)
GI50 (UACC-257): > 100 µM (inactive)
GI50 (XF498): > 100 µM (inactive)
GI50 (SNB-75): > 100 µM (inactive)
GI50 (HCT-116): > 100 µM (inactive)

NC(=S)/N=C(/c1nc2ccc(Cl)cc2nc1O)C(O)c1ccccc1Cl (centres undefined)
GI50 (NCI-H23): > 100 µM (inactive)
GI50 (HT-29): > 100 µM (inactive)
GI50 (SK-MEL-2): > 100 µM (inactive)
GI50 (OVCAR-5): > 100 µM (inactive)
GI50 (DLD-1): > 100 µM (inactive)
GI50 (COLO 205): > 100 µM (inactive)
GI50 (HCT-15): > 100 µM
GI50 (CCRF-CEM): > 100 µM (inactive)
GI50 (SF-295): > 100 µM (inactive)
GI50 (OVCAR-8): > 100 µM (inactive)
GI50 (RPMI-8226): > 100 µM (inactive)
GI50 (ACHN): > 100 µM (inactive)
GI50 (TK-10): > 100 µM (inactive)
GI50 (UACC-62): > 100 µM (inactive)
GI50 (786-0): > 100 µM (inactive)
GI50 (NCI-H522): > 100 µM (inactive)
GI50 (Malme-3M): > 100 µM (inactive)
GI50 (NCI-H226): > 100 µM (inactive)
GI50 (SK-OV-3): > 100 µM (inactive)
GI50 (M14): > 100 µM (inactive)
GI50 (IGROV-1): > 100 µM (inactive)
GI50 (KM-20L2): > 100 µM (inactive)
GI50 (SF-539): > 100 µM (inactive)
GI50 (KM12): > 100 µM (inactive)
GI50 (HOP-92): > 100 µM (inactive)
GI50 (SF-268): > 100 µM (inactive)
GI50 (U-251): > 100 µM (inactive)
GI50 (DMS-114): > 100 µM (inactive)
GI50 (HOP-18): 33.8 µM (inactive)
GI50 (DMS-273): > 100 µM (inactive)
GI50 (HOP-62): > 100 µM (inactive)
GI50 (K562): > 100 µM (inactive)
GI50 (HL-60): > 100 µM (inactive)
GI50 (RXF 393): > 100 µM (inactive)
GI50 (LXFL 529): > 100 µM (inactive)
GI50 (EKVX): > 100 µM (inactive)
GI50 (MOLT-4): > 100 µM (inactive)
GI50 (LOX IMVI): > 100 µM (inactive)
GI50 (NCI-H460): > 100 µM (inactive)
GI50 (A498): > 100 µM (inactive)
GI50 (UO-31): > 100 µM (inactive)
GI50 (A549): > 100 µM (inactive)
GI50 (OVCAR-4): > 100 µM (inactive)
GI50 (HCC 2998): > 100 µM (inactive)
GI50 (SK-MEL-28): > 100 µM (inactive)
GI50 (SW-620): > 100 µM (inactive)
GI50 (UACC-257): > 100 µM (inactive)
GI50 (XF498): > 100 µM (inactive)
GI50 (SNB-75): > 100 µM (inactive)
